Laboratory results: the supplement of paper PMC8882468

Tested on: HCI-002 (organoid from a triple-negative breast cancer xenograft)
Test: CTG-3D luminescence at 96 h relative to day-0 seeding control (ratio to day 0); higher = more growth / less cytotoxicity; PDxO 3D drug screen, 96 h, CTG-3D normalised to day-0 seeding control.
Settings: 0.005 µM; days in culture: 62

First: CC(C)(C(=O)NCC(F)(F)C(F)(F)F)C(=O)N[C@@H]1C(=O)Nc2ccccc2-c2ccccc21
Second: O=C(/C=C/c1cccnc1)NCCCCC1CCN(C(=O)c2ccccc2)CC1 [FK866]
The “CTG-3D luminescence at 96 h” value of the first is higher: 2.94 for the first, 1.43 for the second.

Going from `CCN(c1cc(C#CCN2CCOCC2)cc(C(=O)NCc2c(C)cc(C)[nH]c2=O)c1C)[C@H]1CC[C@H](N(C)CCOC)CC1` to `CCc1c2c(nc3ccc(O)cc13)-c1cc3c(c(=O)n1C2)COC(=O)[C@]3(O)CC` [SN-38], the “CTG-3D luminescence at 96 h” value falls from 4.04 to 1.01.

Compared with `NC(=O)Nc1cc(-c2cccc(F)c2)sc1C(=O)N[C@H]1CCCNC1` [AZD7762], `C=CCn1c(=O)c2cnc(Nc3ccc(N4CCN(C)CC4)cc3)nc2n1-c1cccc(C(C)(C)O)n1` [adavosertib] is lower in “CTG-3D luminescence at 96 h” value: 2.85 for the first, 2.73 for the second.

In the case of `CCN1CCN(Cc2ccc(Nc3ncc(F)c(-c4cc(F)c5nc(C)n(C(C)C)c5c4)n3)nc2)CC1` [abemaciclib], the “CTG-3D luminescence at 96 h” value was 3.14.

Same assay, conditions: 0.005 µM; days in culture: 82

Compared with `CC(C)(C(=O)NCC(F)(F)C(F)(F)F)C(=O)N[C@@H]1C(=O)Nc2ccccc2-c2ccccc21`, `O=C(/C=C/c1cccnc1)NCCCCC1CCN(C(=O)c2ccccc2)CC1` [FK866] is lower in “CTG-3D luminescence at 96 h” value: 2.34 for the first, 0.508 for the second.

Going from `CCN(c1cc(C#CCN2CCOCC2)cc(C(=O)NCc2c(C)cc(C)[nH]c2=O)c1C)[C@H]1CC[C@H](N(C)CCOC)CC1` to `CCc1c2c(nc3ccc(O)cc13)-c1cc3c(c(=O)n1C2)COC(=O)[C@]3(O)CC` [SN-38], the “CTG-3D luminescence at 96 h” value falls from 2.98 to 1.13.

First: NC(=O)Nc1cc(-c2cccc(F)c2)sc1C(=O)N[C@H]1CCCNC1 [AZD7762]
Second: C=CCn1c(=O)c2cnc(Nc3ccc(N4CCN(C)CC4)cc3)nc2n1-c1cccc(C(C)(C)O)n1 [adavosertib]
The “CTG-3D luminescence at 96 h” value of the first is higher: 2.27 for the first, 2.02 for the second.

In the case of `CCN1CCN(Cc2ccc(Nc3ncc(F)c(-c4cc(F)c5nc(C)n(C(C)C)c5c4)n3)nc2)CC1` [abemaciclib], the “CTG-3D luminescence at 96 h” value was 2.24.

Same assay, conditions: 0.005 µM; days in culture: 91

Going from `CC(C)(C(=O)NCC(F)(F)C(F)(F)F)C(=O)N[C@@H]1C(=O)Nc2ccccc2-c2ccccc21` to `O=C(/C=C/c1cccnc1)NCCCCC1CCN(C(=O)c2ccccc2)CC1` [FK866], the “CTG-3D luminescence at 96 h” value falls from 3.16 to 1.55.

Going from `CCN(c1cc(C#CCN2CCOCC2)cc(C(=O)NCc2c(C)cc(C)[nH]c2=O)c1C)[C@H]1CC[C@H](N(C)CCOC)CC1` to `CCc1c2c(nc3ccc(O)cc13)-c1cc3c(c(=O)n1C2)COC(=O)[C@]3(O)CC` [SN-38], the “CTG-3D luminescence at 96 h” value falls from 2.38 to 0.92.

First: NC(=O)Nc1cc(-c2cccc(F)c2)sc1C(=O)N[C@H]1CCCNC1 [AZD7762]
Second: C=CCn1c(=O)c2cnc(Nc3ccc(N4CCN(C)CC4)cc3)nc2n1-c1cccc(C(C)(C)O)n1 [adavosertib]
The “CTG-3D luminescence at 96 h” value of the first is lower: 3.26 for the first, 3.79 for the second.

`CCN1CCN(Cc2ccc(Nc3ncc(F)c(-c4cc(F)c5nc(C)n(C(C)C)c5c4)n3)nc2)CC1` [abemaciclib] was tested, and the “CTG-3D luminescence at 96 h” value was 2.89.

Same assay, conditions: 0.005 µM; days in culture: 191

First: CC(C)(C(=O)NCC(F)(F)C(F)(F)F)C(=O)N[C@@H]1C(=O)Nc2ccccc2-c2ccccc21
Second: O=C(/C=C/c1cccnc1)NCCCCC1CCN(C(=O)c2ccccc2)CC1 [FK866]
The “CTG-3D luminescence at 96 h” value of the first is higher: 2.45 for the first, 0.424 for the second.

Compared with `CCN(c1cc(C#CCN2CCOCC2)cc(C(=O)NCc2c(C)cc(C)[nH]c2=O)c1C)[C@H]1CC[C@H](N(C)CCOC)CC1`, `CCc1c2c(nc3ccc(O)cc13)-c1cc3c(c(=O)n1C2)COC(=O)[C@]3(O)CC` [SN-38] is lower in “CTG-3D luminescence at 96 h” value: 3.28 for the first, 1.31 for the second.

First: NC(=O)Nc1cc(-c2cccc(F)c2)sc1C(=O)N[C@H]1CCCNC1 [AZD7762]
Second: C=CCn1c(=O)c2cnc(Nc3ccc(N4CCN(C)CC4)cc3)nc2n1-c1cccc(C(C)(C)O)n1 [adavosertib]
The “CTG-3D luminescence at 96 h” value of the first is lower: 2.36 for the first, 2.5 for the second.

For `CCN1CCN(Cc2ccc(Nc3ncc(F)c(-c4cc(F)c5nc(C)n(C(C)C)c5c4)n3)nc2)CC1` [abemaciclib], the “CTG-3D luminescence at 96 h” value was 3.01.

Same assay, conditions: 0.005 µM; days in culture: 209

Compared with `CC(C)(C(=O)NCC(F)(F)C(F)(F)F)C(=O)N[C@@H]1C(=O)Nc2ccccc2-c2ccccc21`, `NC(=O)Nc1cc(-c2cccc(F)c2)sc1C(=O)N[C@H]1CCCNC1` [AZD7762] is lower in “CTG-3D luminescence at 96 h” value: 2.38 for the first, 2.12 for the second.

For `CCN(c1cc(C#CCN2CCOCC2)cc(C(=O)NCc2c(C)cc(C)[nH]c2=O)c1C)[C@H]1CC[C@H](N(C)CCOC)CC1`, the “CTG-3D luminescence at 96 h” value was 2.59.
